Measured values taken from EP2801357A1, “Carboxylated stilbenes for activating AMPK and sirtuins” (IMD Natural Solutions GmbH, priority 2013, dated 2014).
Marks after values point to notes of the source that are not given here.

What was measured:
Sirt2 = target: T1, Sirt2 (Homo sapiens, UniProt Q8IXJ6); assay: SIRT2 Fluorimetric Drug Discovery Kit, Sirt2 activation; assay type: biochemical
T1 construct: purchased BioMol, Hamburg, Germany
T1 sequence (Q8IXJ6 1-389): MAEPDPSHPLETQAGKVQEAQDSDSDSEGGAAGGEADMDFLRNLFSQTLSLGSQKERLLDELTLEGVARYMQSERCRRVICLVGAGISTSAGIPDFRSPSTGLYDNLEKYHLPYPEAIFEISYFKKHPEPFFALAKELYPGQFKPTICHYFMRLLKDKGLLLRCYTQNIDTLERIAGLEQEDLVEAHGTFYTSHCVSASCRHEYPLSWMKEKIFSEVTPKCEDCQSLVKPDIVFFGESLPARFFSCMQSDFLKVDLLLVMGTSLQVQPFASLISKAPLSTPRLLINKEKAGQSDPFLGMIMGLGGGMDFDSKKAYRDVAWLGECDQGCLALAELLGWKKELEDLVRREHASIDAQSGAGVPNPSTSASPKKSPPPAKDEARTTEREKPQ

Sirt3 = target: T2, Sirt3 (Homo sapiens, UniProt Q9NTG7); assay: SIRT3 Fluorimetric Drug Discovery Kit, Sirt3 activation; assay type: biochemical
T2 construct: purchased BioMol, Hamburg, Germany
T2 sequence (Q9NTG7 1-399): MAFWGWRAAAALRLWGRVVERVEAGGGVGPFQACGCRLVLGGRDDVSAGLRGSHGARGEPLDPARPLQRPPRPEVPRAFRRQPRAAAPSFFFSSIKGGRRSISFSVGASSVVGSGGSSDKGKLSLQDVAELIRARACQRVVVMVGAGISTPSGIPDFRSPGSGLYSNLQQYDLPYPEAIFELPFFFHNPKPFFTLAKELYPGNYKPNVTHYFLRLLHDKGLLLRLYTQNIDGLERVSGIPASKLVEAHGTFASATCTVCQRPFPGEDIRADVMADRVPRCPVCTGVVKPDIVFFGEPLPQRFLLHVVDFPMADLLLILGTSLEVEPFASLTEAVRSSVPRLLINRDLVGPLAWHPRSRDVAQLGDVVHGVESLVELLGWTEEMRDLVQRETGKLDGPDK

[1] = tested on: 5'-AMP-activated protein kinase (AMPK); assay: Western blot analysis of AMPK phosphorylation in NHEK; assay type: cell-based, human; conditions: 48 h;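 as to P-AMPK: Chemiluminescence band density of P-AMPK measured with Multigauge software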
[2] = tested on: normal human epidermal keratinocytes (NHEK); assay: MTT reduction assay, cytotoxicity in NHEK; assay type: cell-based
Description: Culture conditions: 37 °C, 5 % CO2. Culture medium: Keratinocyte-SFM (serum-free medium) containing human recombinant epidermal growth factor (EGF 1-53) 0.25 ng/mL and bovine pituitary extract 25 µg/mL (Gibco; Cat. No. 17005-075), supplemented with gentamycin 25 µg/mL. Assay medium: Keratinocyte-SFM (Gibco; Cat. No. 10744-019), supplemented with gentamycin 25 µg/mL.
NHEK were seeded in 24-well plates (30.000 cells / well) and cultured in culture medium for 24 h and then in assay medium for another 24 h. Medium was then removed and replaced by assay medium containing the respective test compound or reference in defined concentrations.
Cytotoxicity was determined using the 3-(4,5-dimethylthiazol-2-yl)-2,5-diphenyltetrazoliumbromid (MTT) reduction assay (sse T. Mosmann (1983) J. Immunol. Methods. 65, pp. 55-63).

[3] = tested on: normal human dermal fibroblasts (NHDF); assay: Mitochondria content of NHDF, Mito-ID Green Detection Kit; assay type: cell-based
Description: (§1) The effect of compound (I-1) on mitochondria biosynthesis was investigated in normal human dermal fibroblasts (NHDF). NHDF were obtained from PromoCell (Lot No. 006151; donor; from eyelid skin) and cultivated in Fibroblast Growth Medium (PromoCell; Cat. No. C-023020) supplemented with Supplement Mix (PromoCell; Cat. No. C-039215) at 37 °C /5% CO2. NHDF were seeded in flat-bottom 96-well plates (5000 cells / well) and incubated in said medium for 24 h or 48 h, respectively, with the compounds present in concentrations ranging from 0.03 µM to 200 µM. Mitochondria content was analyzed using the Mito-ID® Green Detection Kit for fluorescence microscopy (Enzo Life Sciences; Cat. No. ENZ-51055-K500). Fluorometric analysis was done using a Spectramax plate reader (Molecular Devices) and following the manufacturer's protocol. Cytotoxicity was determined in parallel by fluorometric readout using the Resazurin Based In Vitro Toxicology Assay Kit (Sigma Aldrich, Cat. No. TOX-8), and following the manufacturer's protocol.

[4] = tested on: normal human dermal fibroblasts (NHDF); assay: Resazurin based cytotoxicity assay in NHDF; assay type: cell-based; conditions: 24 h and 48 h, 0.03 µM to 200 µM
Description: as §1

[5] = Experiment 1, Membrane 1, 10 µM
[6] = Experiment 1, Membrane 1, 30 µM

## CCOC(=O)c1c(O)cccc1/C=C/c1ccc(OCC)cc1 [(I-1)]
Sirt2; Example 2, Table 4, 0.3 µM, read-out: Activity [% control]
  remaining activity at 0.3 µM: 114%
Sirt2; Example 2, Table 4, 1.0 µM, read-out: Activity [% control]
  remaining activity at 1 µM: 142%
Sirt2; Example 2, Table 4, 3.0 µM, read-out: Activity [% control]
  remaining activity at 3 µM: 204%
Sirt2; Example 2, Table 4, 10.0 µM, read-out: Activity [% control]
  remaining activity at 10 µM: 530%
Sirt2; Example 2, Table 4, 30.0 µM, read-out: Activity [% control]
  remaining activity at 30 µM: 914%
Sirt2; Example 2, Table 6, Sirt2
  EC300: 4.9 µM
Sirt3; Example 2, Table 5, 0.3 µM, read-out: Activity [% control]
  remaining activity at 0.3 µM: 109%
Sirt3; Example 2, Table 5, 1.0 µM, read-out: Activity [% control]
  remaining activity at 1 µM: 124%
Sirt3; Example 2, Table 5, 3.0 µM, read-out: Activity [% control]
  remaining activity at 3 µM: 156%
Sirt3; Example 2, Table 5, 10.0 µM, read-out: Activity [% control]
  remaining activity at 10 µM: 216%
Sirt3; Example 2, Table 5, 30.0 µM, read-out: Activity [% control]
  remaining activity at 30 µM: 247%
Sirt3; Example 2, Table 6, Sirt3, footnote for (I-1): clear activation in dose-response curve visible
  EC300: >30* µM
[1]; Experiment 1, Membrane 1, 3 µM
  AMPK phosphorylation [% Control]: 60 % Control
  P-AMPK: 123 AU/mm^2
  Ratio P-AMPK/ GAPDH: 0.26
[1]; [5]
  AMPK phosphorylation [% Control]: 90 % Control
  P-AMPK: 202 AU/mm^2
  Ratio P-AMPK/ GAPDH: 0.38
[1]; [6]
  AMPK phosphorylation [% Control]: 1006 % Control
  P-AMPK: 2554 AU/mm^2
  Ratio P-AMPK/ GAPDH: 4.26
[2]
  cytotoxicity against NHEK: no cytotoxicity
[3]; 24 h incubation time, 0.03 µM
  Signal intensity [% Control]: 100 % Control
[3]; 24 h incubation time, 0.09 µM
  Signal intensity [% Control]: 99 % Control
[3]; 24 h incubation time, 0.27 µM
  Signal intensity [% Control]: 100 % Control
[3]; 24 h incubation time, 0.82 µM
  Signal intensity [% Control]: 101 % Control
[3]; 24 h incubation time, 2.47 µM
  Signal intensity [% Control]: 103 % Control
[3]; 24 h incubation time, 7.41 µM
  Signal intensity [% Control]: 114 % Control
[3]; 24 h incubation time, 22.22 µM
  Signal intensity [% Control]: 182 % Control
[3]; 24 h incubation time, 66.67 µM
  Signal intensity [% Control]: 354 % Control
[3]; 24 h incubation time, 200.00 µM
  Signal intensity [% Control]: 906 % Control
[3]; 48 h incubation time, 0.03 µM
  Signal intensity [% Control]: 97 % Control
[3]; 48 h incubation time, 0.09 µM
  Signal intensity [% Control]: 92 % Control
[3]; 48 h incubation time, 0.27 µM
  Signal intensity [% Control]: 91 % Control
[3]; 48 h incubation time, 0.82 µM
  Signal intensity [% Control]: 93 % Control
[3]; 48 h incubation time, 2.47 µM
  Signal intensity [% Control]: 94 % Control
[3]; 48 h incubation time, 7.41 µM
  Signal intensity [% Control]: 103 % Control
[3]; 48 h incubation time, 22.22 µM
  Signal intensity [% Control]: 147 % Control
[3]; 48 h incubation time, 66.67 µM
  Signal intensity [% Control]: 293 % Control
[3]; 48 h incubation time, 200.00 µM
  Signal intensity [% Control]: 765 % Control
[3]; NHDF, 24 h and 48 h
  concentrations with significant enhancement of mitochondria biosynthesis: ≥ 10 µM
[4]
  cytotoxicity or loss of cell viability: no cytotoxicity or loss of cell viability
